Data: patent US20260085082A1, “KDM1A INHIBITORS FOR THE TREATMENT OF DISEASE” (Imago Biosciences, Inc., priority 2022, published 2026)
Read-outs that look alike come from different tables or passages of the source.

How the values were obtained:
[1] = target: LSD1 (Homo sapiens, UniProt O60341); test: LSD1 10-dose IC50 fluorescence coupling enzyme assay (HRP/Amplex Red, resorufin); type: biochemical; details: 10 M histone H3(1-21)K4me2 peptide substrate; 3-fold serial dilution in duplicate starting at 100 μM
Experimental: Compounds were tested in a 10-dose IC50 mode fluorescence coupling enzyme assay with 3-fold serial dilution in duplicate starting at 100 μM. The production of FAD-dependent H2O2 as a result of demethylase activity of LSD1 on […] histone H3(1-21)K4me2 peptide substrate was measured by coupling with HRP and Amplex Red to yield resorufin (fluorescence measured at Ex/Em=535/590 nm on EnVision, Perkin Elmer).

[2] = tested on: MV4;11 cells; test: Cell Titer-Glo Luminescent Cell Viability Assay, cell growth inhibition against MV4;11 cells; type: cell-based; details: Homo sapiens
Experimental: Cell growth inhibition against MV4;11 cells was confirmed for the synthetic compounds. The Cell Titer-Glo Luminescent Cell Viability Assay (Promega, USA) was used to determine the number of viable cells in culture based on quantitation of the ATP present, which signals the presence of metabolically active cells. This assay was run in a 96-well plate format arrayed in a 10-point dose curve, ranging from 0 to 50 μM with 4-fold dilutions for each compound. Cells are seeded on Day 0 at 3750 cells per well. At Day 5, a portion of each well is assayed for viability according to the Cell Titer-Glo protocol. Briefly, cells/plates were centrifuged at 1100×g for 5 minutes. 100 μL of media was removed from each well and replaced with 100 μL of CellTiter-Glo. The plates were shaken at room temperature for 10 minutes and measured on a luminescence plate reader. Another portion of each well from the Day 5 plate is used to seed a new 96 plate containing fresh compound and media set up in the equivalent 10-point dose curve array in order to continue the cell growth inhibition assay for another 5 days. A final timepoint is collected at Day 10 using the Cell Titer-Glo protocol. Luminescence was detected on an EnVision® Multilabel Plate Reader (Perkin Elmer, Waltham, Mass.) and IC50 determination was made using Graph Pad Prism software.

[3] = MV4-11, 120 h, MV4;11 cells, Day 5, 10-point dose curve 0 to 50 μM, read-out: Cell Titer Glo IC50 (5 d)
[4] = MV4-11, MV4;11 cells, Day 10 (re-seeded at Day 5 with fresh compound), 10-point dose curve 0 to 50 μM, read-out: Cell Titer Glo IC50 (10 d)

Row | Compound | IC50 [1] | IC50 [2, 3] | IC50 [2, 4]
1 | COc1ccc(-n2nc(C(=O)N[C@@H]3CCC[C@@H](N)C3)cc2-c2ccc(C#N)c(F)c2)cc1 [Example 23, N-((1R,3R)-3-aminocyclohexyl)-5-(4-cyano-3-fluorophenyl)-1-(4-methoxyphenyl)-1H-pyrazole-3-carboxamide 2,2,2-trifluoroacetate] | 1 to 10 µM | 1 to 10 µM | –
2 | COc1ccc(-n2nc(C(=O)NC3CCNCC3)cc2-c2ccc(C#N)c(F)c2)cc1 [Example 24, 5-(4-Cyano-3-fluorophenyl)-1-(4-methoxyphenyl)-N-(piperidin-4-yl)-1H-pyrazole-3-carboxamide] | 1 to 10 µM | 1 to 10 µM | –
3 | COc1ccc(-n2nc(C(=O)N[C@H]3CCC[C@H](N)C3)cc2-c2ccc(C#N)c(F)c2)cc1 [Example 25, N-((1S,3S)-3-aminocyclohexyl)-5-(4-cyano-3-fluorophenyl)-1-(4-methoxyphenyl)-1H-pyrazole-3-carboxamide 2,2,2-trifluoroacetate] | 1 to 10 µM | 1 to 10 µM | –
4 | COc1ccc(-n2nc(C(=O)N[C@H]3CCNC3)cc2-c2ccc(C#N)c(F)c2)cc1 [Example 26, (S)-5-(4-cyano-3-fluorophenyl)-1-(4-methoxyphenyl)-N-(pyrrolidin-3-yl)-1H-pyrazole-3-carboxamide 2,2,2-trifluoroacetate] | 0.5 to 1 µM | 1 to 10 µM | –
5 | COc1ccc(-n2nc(C(=O)N[C@@H]3CCNC3)cc2-c2ccc(C#N)c(F)c2)cc1 [Example 27, (R)-5-(4-cyano-3-fluorophenyl)-1-(4-methoxyphenyl)-N-(pyrrolidin-3-yl)-1H-pyrazole-3-carboxamide 2,2,2-trifluoroacetate] | 1 to 10 µM | 1 to 10 µM | –
6 | COc1ccc(-n2nc(C(=O)N[C@@H]3CCC[C@H](N)C3)cc2-c2ccc(C#N)c(F)c2)cc1 [Example 28, N-((1R,3S)-3-aminocyclohexyl)-5-(4-cyano-3-fluorophenyl)-1-(4-methoxyphenyl)-1H-pyrazole-3-carboxamide 2,2,2-trifluoroacetate] | 0.5 to 1 µM | 1 to 10 µM | –
7 | COc1ccc(-n2nc(C(=O)N3CCCC(NC(=N)N)C3)cc2-c2ccc(C#N)c(F)c2)cc1 (stereo not shown) [Example 29, 1-(1-(5-(4-Cyano-3-fluorophenyl)-1-(4-methoxyphenyl)-1H-pyrazole-3-carbonyl)piperidin-3-yl)guanidine 2,2,2-trifluoroacetate] | 1 to 10 µM | > 10 µM | –
8 | COc1ccc(-n2nc(C(=O)N3CC(N)C3)cc2-c2ccc(C#N)c(F)c2)cc1 [Example 31, 4-(3-(3-Aminoazetidine-1-carbonyl)-1-(4-methoxyphenyl)-1H-pyrazol-5-yl)-2-fluorobenzonitrile 2,2,2-trifluoroacetate] | > 10 µM | > 10 µM | –
9 | COc1ccc(-n2nc(C(=O)N3CC(CN)C3)cc2-c2ccc(C#N)c(F)c2)cc1 [Example 32, 4-(3-(3-(Aminomethyl)azetidine-1-carbonyl)-1-(4-methoxyphenyl)-1H-pyrazol-5-yl)-2-fluorobenzonitrile 2,2,2-trifluoroacetate] | 1 to 10 µM | 1 to 10 µM | –
10 | COc1ccc(Cn2nc(C(=O)N3CCC[C@@H](N)C3)cc2-c2ccc(C#N)c(F)c2)cc1 [Example 33, (R)-4-(3-(3-aminopiperidine-1-carbonyl)-1-(4-methoxybenzyl)-1H-pyrazol-5-yl)-2-fluorobenzonitrile 2,2,2-trifluoroacetate] | < 0.5 µM | < 0.5 µM | –
11 | COc1ccc(Cn2nc(C(=O)N3CCC[C@H](N)C3)cc2-c2ccc(C#N)c(F)c2)cc1 [Example 34, (S)-4-(3-(3-aminopiperidine-1-carbonyl)-1-(4-methoxybenzyl)-1H-pyrazol-5-yl)-2-fluorobenzonitrile 2,2,2-trifluoroacetate] | 0.5 to 1 µM | 1 to 10 µM | –
12 | COc1ccc(-n2nc(C(=O)N3CCCC(N)C3)cc2-c2ccc(C#N)c(F)c2)cc1F (stereo not shown) [Example 35, 4-(3-(3-Aminopiperidine-1-carbonyl)-1-(3-fluoro-4-methoxyphenyl)-1H-pyrazol-5-yl)-2-fluorobenzonitrile] | < 0.5 µM | < 0.5 µM | –
13 | COc1ccc(-n2nc(C(=O)N3CCC[C@@H](N)C3)cc2-c2ccc(C#N)c(F)c2)cc1F [Example 36, (R)-4-(3-(3-aminopiperidine-1-carbonyl)-1-(3-fluoro-4-methoxyphenyl)-1H-pyrazol-5-yl)-2-fluorobenzonitrile] | < 0.5 µM | < 0.5 µM | –
14 | COc1ccc(-n2nc(C(=O)N3CCC[C@H](N)C3)cc2-c2ccc(C#N)c(F)c2)cc1F [Example 37, (S)-4-(3-(3-aminopiperidine-1-carbonyl)-1-(3-fluoro-4-methoxyphenyl)-1H-pyrazol-5-yl)-2-fluorobenzonitrile] | 0.5 to 1 µM | 1 to 10 µM | –
15 | Cc1cc(CCn2nc(C(=O)N3CCC[C@@H](N)C3)cc2-c2ccc(C#N)c(F)c2)on1 [Example 38, (R)-4-(3-(3-aminopiperidine-1-carbonyl)-1-(2-(3-methylisoxazol-5-yl)ethyl)-1H-pyrazol-5-yl)-2-fluorobenzonitrile] | > 10 µM | 1 to 10 µM | –
16 | Cc1cc(CCn2nc(C(=O)N3CCC[C@H](N)C3)cc2-c2ccc(C#N)c(F)c2)on1 [Example 39, (S)-4-(3-(3-aminopiperidine-1-carbonyl)-1-(2-(3-methylisoxazol-5-yl)ethyl)-1H-pyrazol-5-yl)-2-fluorobenzonitrile] | > 10 µM | > 10 µM | –
17 | Cn1cc2cc(-n3nc(C(=O)N4CCCC(N)C4)cc3-c3ccc(C#N)c(F)c3)ccc2n1 (stereo not shown) [Example 40, 4-(3-(3-Aminopiperidine-1-carbonyl)-1-(2-methyl-2H-indazol-5-yl)-1H-pyrazol-5-yl)-2-fluorobenzonitrile] | < 0.5 µM | < 0.5 µM | –
18 | Cn1cc2cc(-n3nc(-c4ccc(C#N)c(F)c4)cc3C(=O)N3CCCC(N)C3)ccc2n1 (stereo not shown) [Example 41, 4-(5-(3-Aminopiperidine-1-carbonyl)-1-(2-methyl-2H-indazol-5-yl)-1H-pyrazol-3-yl)-2-fluorobenzonitrile] | < 0.5 µM | 1 to 10 µM | –
19 | Cn1ncc2cc(-n3nc(C(=O)N4CCC[C@H](N)C4)cc3-c3ccc(C#N)c(F)c3)ccc21 [Example 42, (S)-4-(3-(3-aminopiperidine-1-carbonyl)-1-(1-methyl-1H-indazol-5-yl)-1H-pyrazol-5-yl)-2-fluorobenzonitrile 2,2,2-trifluoroacetate] | < 0.5 µM | 0.5 to 1 µM | < 0.5 µM
20 | Cn1ncc2cc(-n3nc(C(=O)N4CCC[C@@H](N)C4)cc3-c3ccc(C#N)c(F)c3)ccc21 [Example 43, (R)-4-(3-(3-aminopiperidine-1-carbonyl)-1-(1-methyl-1H-indazol-5-yl)-1H-pyrazol-5-yl)-2-fluorobenzonitrile 2,2,2-trifluoroacetate] | < 0.5 µM | – | < 0.5 µM
21 | Cn1cc2cc(-n3nc(C(=O)N4CCC[C@H](N)C4)cc3-c3ccc(C#N)c(F)c3)ccc2n1 [Example 44, (S)-4-(3-(3-aminopiperidine-1-carbonyl)-1-(2-methyl-2H-indazol-5-yl)-1H-pyrazol-5-yl)-2-fluorobenzonitrile 2,2,2-trifluoroacetate] | < 0.5 µM | < 0.5 µM | < 0.5 µM
22 | N#Cc1ccc(-c2cc(C(=O)N3CCC[C@@H](N)C3)nn2-c2ccc(N3CCC(OCCO)CC3)cc2)cc1F [Example 45, (R)-4-(3-(3-aminopiperidine-1-carbonyl)-1-(4-(4-(2-hydroxyethoxy)piperidin-1-yl)phenyl)-1H-pyrazol-5-yl)-2-fluorobenzonitrile] | < 0.5 µM | – | < 0.5 µM
23 | N#Cc1ccc(-c2cc(C(=O)N3CCC[C@@H](N)C3)nn2-c2ccc(N3CCC(=O)CC3)cc2)cc1F [Example 46, (R)-4-(3-(3-aminopiperidine-1-carbonyl)-1-(4-(4-oxopiperidin-1-yl)phenyl)-1H-pyrazol-5-yl)-2-fluorobenzonitrile] | < 0.5 µM | – | < 0.5 µM
24 | CC1(O)CCN(c2ccc(-n3nc(C(=O)N4CCC[C@@H](N)C4)cc3-c3ccc(C#N)c(F)c3)cc2)CC1 [Example 47, (R)-4-(3-(3-aminopiperidine-1-carbonyl)-1-(4-(4-hydroxy-4-methylpiperidin-1-yl)phenyl)-1H-pyrazol-5-yl)-2-fluorobenzonitrile 2,2,2-trifluoroacetate] | < 0.5 µM | – | < 0.5 µM
25 | N#Cc1ccc(-c2cc(C(=O)N3CCC[C@@H](N)C3)nn2-c2ccc(N3CCC(C#N)CC3)cc2)cc1F [Example 48, (R)-1-(4-(3-(3-aminopiperidine-1-carbonyl)-5-(4-cyano-3-fluorophenyl)-1H-pyrazol-1-yl)phenyl)piperidine-4-carbonitrile 2,2,2-trifluoroacetate] | < 0.5 µM | – | < 0.5 µM
